{"source": "patent US20060194815A1", "about": "“Methods and compositions for modulating serum cortisol levels” (priority 2003, published 2006)", "key": {"[1]": {"tested_on": "steroidogenesis acute regulatory protein (StAR)", "experiment": "Immunoblot of StAR protein levels in Y1 cells", "type": "cell-based, mouse", "conditions": "1 μM procaine, 48 hour treatment, 3 hour dbcAMP", "protocol": "(§1) At the end of the treatment protocol described above, Y1 cells at 90% confluency were washed 2 times with PBS, sonicated 15 seconds in extraction buffer and centrifuged at 18,500 g for 15 minutes at 4° C. Pellets were resuspended in ice-cold lysis buffer (1% Nonidet 40 in extraction buffer), sonicated briefly, and incubated on ice for 1 hour. After centrifugation (22,500 g×30 min, 4° C.), the supernatant was mixed in sample buffer 6× (0.27 M SDS, 0.6 M dithiothreitol, 0.18 M bromphenol blue in 7 ml of 0.5 M Tris-HCl, pH 6.8, and 3 ml glycerol) and boiled for 5 minutes. Proteins were subjected to SDS-PAGE (4-20% gradient SDS polyacrylamide gel) and electrophoretically transferred onto nitrocellulose membranes. The transblot sheets were blocked with 5% non fat dry milk in 25 mM Tris HCl, pH 7.5, 150 mM NaCl, and 0.1% Tween 20 overnight at 4° C. Membranes were then incubated with appropriately diluted primary antibodies 1:800 for anti-P-450SCC (Research Diagnostics Inc. Flanders, N.J.) and 1:200 for anti-StAR (Amri et al., 1996), and the reaction was detected by a peroxidase-conjugated secondary antibody (Santa Cruz Biotechnology, Santa Cruz, Calif.) and enhanced chemiluminescence (Amersham Life, Arlington Heights, Ill.). The densities of the appropriate bands were determined using the OptiQuant Acquisition & Analysis software (Packard BioScience)."}, "HMG-CoA reductase": {"tested_on": "HMG-CoA reductase", "experiment": "HMG-CoA reductase activity in treated Y1 cells", "type": "cell-based, mouse", "conditions": "increasing concentrations", "protocol": "Cells were washed twice with ice-cold PBS and incubated with ice-cold assay buffer (0.1M sucrose, 40 mM KH2PO4, 30 mM EDTA, 50 mM KCl, 5 mM DTT, 0.25% (v/v) of Brij 96, at pH 7.4) on ice for 20 minutes. After centrifugation for 3 minutes at 14000 g (4° C.) the supernatants were collected and used for HMG-CoA reductase activity assay. The total 150 l assay mixture contained 100-200 g protein and the NADPH-generating system (2.5 mM NADP, 20 mM glucose 6-phosphate and 20 U/ml glucose 6-phosphate dehydrogenase). The reaction was started by adding substrate (^14C-HMG-CoA, 0.1 Ci) and stopped after 45 minutes by adding 10-1 of HCl 6M. ^3H-mevalonolactone was also added to the samples as an extraction recovery marker. After an additional 30 minutes incubation time, to allow complete lactonization of the product, the mixture was centrifuged. The supernatant was applied to Bond-Elut NH2 column and eluted with 1 ml of toluene/acetone (3:1). The eluate was discarded and further 4 ml of toluene/acetone was applied to the column and collected in a scintillation vial for counting ^14C-mevalonate and 3H-mevalonolactone signals (Berkhout et al., 1990)."}, "P-450SCC enzyme": {"tested_on": "P-450SCC enzyme", "experiment": "Immunoblot of P-450SCC enzyme expression in Y1 cells", "type": "cell-based, mouse", "conditions": "Y1 cell extracts", "protocol": "as §1"}, "HMG-CoA reductase mRNA [2]": {"tested_on": "HMG-CoA reductase mRNA", "experiment": "HMG-CoA reductase mRNA expression by Q-PCR in Hepa1-6 cells", "type": "cell-based", "conditions": "Hepa1-6 mouse liver hepatoma cells", "protocol": "(§2) After treatment, cells were stimulated with 1 mM dbcAMP for 24 hours. At the end of the incubation, total cell RNA was extracted using. RNA STAT-60 (Tel-Test Inc, Friendswood, Tex.) according to the manufacturer's instructions. HMG-CoA reductase mRNA was quantified by Q-PCR using the ABI Prism 7700 sequence detection system (Perlin-Elmer/Applied Biosystems, Foster City, Calif.). RT reaction was performed using TaqMan® Reverse Transcription Reagents with 1 g total RNA and random hexamers as primers for each reaction according to the manufacturer's instructions. For quantifying mouse HMG-CoA reductase mRNA with Q-PCR, the primers were designed according to GenBank Accession Number BC 019782 using PE/AB Primer Express software, which is specifically designed for the selection of primers and probes. The forward primer was 5′-[…]-3′ (22 nucleotides) and reverse primer was 5′-[…]-3′ (23 nucleotides), respectively. The primers were synthesized by Bio-Synthesis Inc. (Lewisville, Tex.). Reactions were performed in a reaction mixture consisting of a 20 l volume solution containing 10 l SYBR® Green PCR Master Mix and 1 l primers mix (5 M each) with 2 l cDNA."}, "HMG-CoA reductase mRNA [3]": {"tested_on": "HMG-CoA reductase mRNA", "experiment": "HMG-CoA reductase mRNA expression by Q-PCR in UT-1 cells", "type": "cell-based, Chinese hamster", "conditions": "dbcAMP induced", "protocol": "as §2"}, "[4]": {"tested_on": "peripheral-type benzodiazepine receptor (PBR)", "experiment": "PBR radioligand binding assay ([3H]PK 11195) in procaine-treated cells", "conditions": "1 μM procaine, 48 hour treatment", "protocol": "Radioligand binding assays were performed as previously described (Papadopoulos et al., 1990, J. Biol. Chem. 265, 3772-3779). In brief, cells were scrapped from culture flasks into PBS, dispersed by trituration, and centrifuged at 1200×g for 5 min. The cells were resuspended in PBS to a final concentration of 10-50 μg protein/100 μl. Saturation binding studies were performed in a final volume of 300 μl in the presence of the radioligand [^3H]PK 11195 (specific activity 83.5 Ci/mmol; NEN Life Science Products) at the indicated concentrations. Nonspecific binding was determined in the presence of 6 μM of the homologous non-radioactive ligand. After 180 min incubation at 4° C., the assays were stopped by filtration through Whatman GF/C filters (Clifton, N.J.) and washed with 10 ml PBS. Bound radioactivity was determined by liquid scintillation counting. Bound [^3H]PK 11195 and [^3H]cholesterol were quantified by liquid scintillation spectrometry. Dissociation constants (Kd), the number of binding sites (Bmax) and Hill coefficients (nH) for PK 11195 and cholesterol were determined by Curve-Fit (Prism version 3.0, GraphPad Software Inc., San Diego, Calif.)."}}, "note": "Entries after “also recorded” stand apart in the source; their conditions may differ.", "data": [{"compound": "CCN(CC)CCOC(=O)c1ccc(N)cc1", "note": "[procaine]", "values": [{"measurement": "levels of the mature 30 kDa StAR protein", "setting": "[1]", "result": "did not affect"}, {"measurement": "levels of the mature 30 kDa StAR protein", "setting": "[1]; listed as Procaine", "result": "had no effect"}, {"measurement": "HMG-CoA reductase activity in treated cells", "setting": "HMG-CoA reductase", "result": "reduced in a dose-dependent manner"}, {"measurement": "expression of the P-450SCC enzyme (immunoblot)", "setting": "P-450SCC enzyme", "result": "did not modify"}, {"measurement": "dbcAMP-induced HMG-CoA reductase mRNA levels", "setting": "HMG-CoA reductase mRNA [2]", "result": "inhibited; also recorded: robust"}, {"measurement": "inhibition of HMG-CoA reductase mRNA expression", "setting": "HMG-CoA reductase mRNA [3]", "result": "minor and not significant"}, {"measurement": "ligand binding characteristics / expression of PBR", "setting": "[4]", "result": "did not affect"}, {"measurement": "PBR Kd of [3H]PK 11195 in procaine-treated cells", "setting": "[4]; control 1.8 nM, Kd of the radioligand, not of procaine", "result": 1.7, "unit": "nM"}, {"measurement": "PBR Bmax ([3H]PK 11195) in procaine-treated cells", "setting": "[4]; control 27±3", "result": "29±4", "unit": "pmol/mg protein"}, {"measurement": "ligand binding characteristics / expression of PBR", "setting": "[4]; listed as Procaine", "result": "had no effect"}]}]}
